Where two headings read alike, the source gives them in different places.
How the values were obtained:
Puccinia triticina = assay: In vivo preventive Puccinia triticina test (wheat); details: Puccinia triticina, 192 h, 8 days after inoculation, read-out: Efficacy in % found; for pest or weed control at 20 ppm: 20 ppm a.i.; for pest or weed control at 40 ppm: 40 ppm a.i.; for pest or weed control at 80 ppm: 80 ppm a.i.; for pest or weed control at 7.5 ppm: 7.5 ppm a.i.; for pest or weed control at 15 ppm: 15 ppm a.i.; for pest or weed control at 30 ppm: 30 ppm a.i.; for pest or weed control at 250 ppm: 250 ppm a.i.
Method: After the spray coating has been dried, the plants are sprayed with a spore suspension of Puccinia triticina.
The test is evaluated 8 days after the inoculation.

Sphaerotheca fuliginea = assay: In vivo preventive test on Sphaerotheca (cucumbers); details: 7 days after inoculation
[1] = tested on: fish (Danio rerio) embryos; assay: In vivo ecotoxicity screening test on fish (Danio rerio); details: active compound alone; fish embryos, 96 h, 28.5° C.
Method: (§1) with ECxi the Effect Concentration (EC) of each chemical i (in ppm) causing x % effect on the ecotoxicity test endpoint.
(§2) For each compound combination, the predicted ECx value is calculated. It is then compared to an experimentally measured value. The ratio of predicted versus measured effect for the combination (thereafter called the Model Deviation Ratio or MDR) is then calculated.
(§3) The environmental effect of the compound combinations was measured experimentally in laboratory ecotoxicity screening studies with fish (Danio rerio). […] Mortality was recorded after 96 h for each tested concentration and a reference control. […] Then, the MDR values were calculated.
(§4) • Solvent: 0.5% by weight dimethyl sulfoxide
(§5) This concentrate is then diluted with water to the desired a.i. concentration, leading to a maximal solvent concentration of 0.5% by weight. The compounds alone and the combinations were tested for five increasing concentrations between 0.01 and 1000 ppm a.i., (e.g. 0.1, 1.0, 10 and 100 ppm a.i). For the combinations, compounds A and B were mixed in a weight ratio of 5:1 to 1:5 and five increasing concentrations were tested for each ratio.

Fusarium culmorum = assay: In vitro-Test with Fusarium culmorum; format: cell-based
Rhizoctonia solani = assay: In vitro-Test with Rhizoctonia solani; format: cell-based
Septoria tritici = assay: In vivo preventive Septoria tritici test (wheat); details: Zymoseptoria tritici, 504 h, 21 days after inoculation, read-out: Efficacy in % found; for pest or weed control at 40 ppm: 40 ppm a.i.; for pest or weed control at 125 ppm: 125 ppm a.i.; for pest or weed control at 250 ppm: 250 ppm a.i.
Method: After the spray coating has been dried, the plants are sprayed with a spore suspension of Septoria tritici.
The test is evaluated 21 days after the inoculation.

Ustilago avenae = assay: In vitro-Test with Ustilago avenae; format: cell-based; details: compound alone
[2] = In vivo ecotoxicity screening test on fish (Danio rerio); details: Danio rerio, in vivo, other: exposure of embryos to the aqueous preparation
Method: as §1, §2, §3, §4, §5

Pyricularia oryzae = format: cell-based
Pyrenophora teres = assay: In vitro-Test with Pyrenophora teres; format: cell-based
Phakopsora pachyrhizi = assay: In vivo preventive test on Phakopsora (soybeans); details: Table C3, 7 days after inoculation
[3] = tested on: Blumeria graminis f.sp. hordei; assay: In vivo preventive Blumeria test (barley); details: Table F2, 7 days after inoculation
Leptosphaeria nodorum = assay: In vitro-Test with Leptosphaeria nodorum; format: cell-based; details: 0.04 ppm
Venturia inaequalis = assay: In vivo preventive test on Venturia (apples); details: Table E2, 10 days after inoculation
Method: The test is evaluated 10 days after the inoculation.

Botrytis cinerea = assay: In vitro-Test with Botrytis cinerea; format: cell-based

CC(C)C1CCC(Cc2ccc(Cl)cc2)C1(O)Cn1cncn1 (centres unmarked) [Example 1.012, ipconazole]
pest or weed control at 20 ppm (Puccinia triticina): 0%
pest or weed control at 40 ppm (Puccinia triticina): 44%
pest or weed control at 80 ppm (Puccinia triticina): 100%
pest or weed control at 20 ppm (Puccinia triticina; Table H1): 0%
pest or weed control at 40 ppm (Puccinia triticina; Table H1): 67%
pest or weed control at 80 ppm (Puccinia triticina; Table H1): 89%
Efficacy in % found (Sphaerotheca fuliginea; Table D1, 2.5 ppm a.i.): 26%
Efficacy in % found (Sphaerotheca fuliginea; Table D1, 5 ppm a.i.): 87%
Efficacy in % found (Sphaerotheca fuliginea; Table D1, 10 ppm a.i.): 100%
Ecotoxicity LC50-96 h found [1]: 6.57 ppm a.i.
Efficacy % (Fusarium culmorum; 0.04 ppm): 7%
Efficacy % (Fusarium culmorum; 0.2 ppm): 13%
Efficacy % (Fusarium culmorum; 1 ppm): 96%
Efficacy % (Fusarium culmorum; 5 ppm): 99%
Efficacy % (Rhizoctonia solani; 0.04 ppm): 35%
Efficacy % (Rhizoctonia solani; 0.2 ppm): 96%
pest or weed control at 20 ppm (Septoria tritici; 20 ppm a.i.): 0%
pest or weed control at 40 ppm (Septoria tritici): 0%
pest or weed control at 80 ppm (Septoria tritici; 80 ppm a.i.): 0%

CC(C)c1ccc(Cl)cc1CN(C(=O)c1c(C(F)F)nn(C)c1F)C1CC1 [Example 2.038, N-(5-chloro-2-isopropylbenzyl)-N-cyclopropyl-3-(difluoromethyl)-5-fluoro-1-methyl-1H-pyrazole-4-carboxamide]
pest or weed control at 7.5 ppm (Puccinia triticina): 22%
pest or weed control at 15 ppm (Puccinia triticina): 33%
pest or weed control at 30 ppm (Puccinia triticina): 44%
pest or weed control at 7.5 ppm (Puccinia triticina; Table H1): 33%
pest or weed control at 15 ppm (Puccinia triticina; Table H1): 33%
pest or weed control at 30 ppm (Puccinia triticina; Table H1): 33%
Efficacy % (Ustilago avenae; 0.8 ppm): 43%
Efficacy % (Ustilago avenae; 4 ppm): 49%
Efficacy % (Ustilago avenae; 20 ppm): 52%
Efficacy in % found (Sphaerotheca fuliginea; Table D3, 1 ppm a.i.): 40%
Efficacy in % found (Sphaerotheca fuliginea; Table D3, 2 ppm a.i.): 93%
Efficacy in % found (Sphaerotheca fuliginea; Table D3, 4 ppm a.i.): 98%
LC50 at 96 h [2]: 1.74 µg/mL
Efficacy % (Pyricularia oryzae; 0.8 ppm): 0%
Efficacy % (Pyricularia oryzae; 4 ppm): 51%
Efficacy % (Pyricularia oryzae; 20 ppm): 75%
Efficacy % (Pyrenophora teres; 0.8 ppm): 57%
Efficacy % (Pyrenophora teres; 4 ppm): 82%
Efficacy % (Pyrenophora teres; 20 ppm): 55%

N#Cc1c(Cl)c(Cl)c(Cl)c(C#N)c1Cl [Example 5.004, chlorothalonil]
pest or weed control at 62.5 ppm (Puccinia triticina; 62.5 ppm a.i.): 0%
pest or weed control at 250 ppm (Puccinia triticina): 40%
Efficacy in % found (Phakopsora pachyrhizi; 25 ppm a.i.): 8%
Efficacy in % found (Phakopsora pachyrhizi; 50 ppm a.i.): 0%
Efficacy in % found ([3]; 62.5 ppm a.i.): 22%
Efficacy in % found ([3]; 125 ppm a.i.): 44%
Efficacy in % found ([3]; 250 ppm a.i.): 44%
Efficacy % (Leptosphaeria nodorum): 0%
Efficacy in % found (Venturia inaequalis; 12.5 ppm a.i.): 24%
Efficacy in % found (Venturia inaequalis; 25 ppm a.i.): 14%
Efficacy in % found (Venturia inaequalis; 50 ppm a.i.): 93%
pest or weed control at 62.5 ppm (Septoria tritici; 62.5 ppm a.i.): 0%
pest or weed control at 125 ppm (Septoria tritici): 0%
pest or weed control at 250 ppm (Septoria tritici): 14%

CC1(C)N=C(c2cnc3ccccc3c2)c2ccccc2C1(F)F [Example 15.047, 3-(4,4-difluoro-3,3-dimethyl-3,4-dihydroisoquinolin-1-yl)quinoline]
pest or weed control at 125 ppm (Puccinia triticina; 125 ppm a.i.): 11%
pest or weed control at 250 ppm (Puccinia triticina): 11%
pest or weed control at 500 ppm (Puccinia triticina; 500 ppm a.i.): 22%
Efficacy in % found (Sphaerotheca fuliginea; Table D2, 2.5 ppm a.i.): 0%
Efficacy in % found (Sphaerotheca fuliginea; Table D2, 5 ppm a.i.): 0%
Efficacy in % found (Sphaerotheca fuliginea; Table D2, 10 ppm a.i.): 8%
LC50 at 96 h [2]: 7.82 µg/mL
Efficacy % (Pyrenophora teres; 0.04 ppm): 28%
Efficacy % (Pyrenophora teres; 0.2 ppm): 76%
Efficacy % (Pyrenophora teres; 1 ppm): 64%
Efficacy % (Fusarium culmorum; 0.04 ppm): 83%
Efficacy % (Fusarium culmorum; 0.2 ppm): 100%
Efficacy % (Rhizoctonia solani; 1 ppm, compound alone): 0%
Efficacy % (Rhizoctonia solani; 5 ppm, compound alone): 0%
Efficacy % (Botrytis cinerea; 1 ppm): 0%
Efficacy % (Botrytis cinerea; 5 ppm): 0%
pest or weed control at 125 ppm (Septoria tritici): 0%
pest or weed control at 250 ppm (Septoria tritici): 0%
pest or weed control at 500 ppm (Septoria tritici; 500 ppm a.i.): 0%

CC(O)(Cn1cncn1)c1ccc(Oc2ccc(Cl)cc2)nc1C(F)(F)F (centres unmarked) [I.01, 2-[6-(4-chlorophenoxy)-2-(trifluoromethyl)pyridin-3-yl]-1-(1H-1,2,4-triazol-1-yl)propan-2-ol]
pest or weed control at 20 ppm (Puccinia triticina): 30%
pest or weed control at 40 ppm (Puccinia triticina): 50%
pest or weed control at 80 ppm (Puccinia triticina): 60%
LC50 at 96 h [2]: 6.21 µg/mL
pest or weed control at 40 ppm (Septoria tritici): 63%

CC(O)(Cn1cncn1)c1ccc(Oc2ccc(Br)cc2)nc1C(F)(F)F (centres unmarked) [I.59, 2-[6-(4-bromophenoxy)-2-(trifluoromethyl)pyridin-3-yl]-1-(1H-1,2,4-triazol-1-yl)propan-2-ol]
LC50 at 96 h [2]: 6 µg/mL

Source: patent US20200008426A1, “ACTIVE COMPOUND COMBINATIONS” (BAYER AKTIENGESELLSCHAFT, priority 2017, published 2020)
